Experimental data from patent publication US9216170B2, “Combination therapy for proliferative disorders” (Hoffman-La Roche Inc., priority 2012, dated 2015).
Where two headings read alike, the source gives them in different places.

Tests used:
[1] = tested on: RKO cell xenografts; assay: Assessment of survival / increase in life span (ILS) in RKO xenograft-bearing mice; type: in vivo; conditions: for % Increased Life Span: Table 3; for % ILS: Table 4; for 50% Treatment Days: median survival day
Description: (§1) Mice were implanted with RKO cell xenografts. The mice, cell line used, and implantation are described below.
(§2) RKO cells (American Type Culture Collection, Rockville, Md.) were maintained in DMEM media+10% (v/v) heat-inactivated FBS+1% (v/v) […] L-glutamine. Each mouse received 2×10^6 cells in a total volume of 0.2 ml. Cells were implanted subcutaneously in the right flank of each mouse using a 1 cc syringe and a 26 gauge needle.
(§3) RKO xenograft-containing mice were randomized into groups of 10 mice each according to tumor volume so that all groups had similar starting mean tumor volumes of about 145 mm^3.
(§4) 10 groups of mice were used.
(§5) Treatment duration was 2 weeks.
For survival assessment, results are plotted as the percentage survival against days after tumor implant (GraphPad Prism, version 5.03). An individual tumor volume of 1500 mm^3 was used as a surrogate for death. The % ILS was calculated as 100×[(median survival day of treated group−median survival day of control group)/median survival day of control group]. Median survival was determined utilizing Kaplan Meier survival analysis. Survival in treated groups was compared with the vehicle group by Log-rank (Mantel-Cox) Test (GraphPad Prism, version 4.3, La Jolla, Calif.). Differences between groups were considered significant when the probability value (p) was ≦0.05.

[2] = tested on: RKO cell xenografts; assay: Tumor growth inhibition in RKO xenograft-bearing mice; type: in vivo; conditions: for Mean Tumor Volume (mm^3) Start Study DAY: 14: baseline; for Full Regression / Partial Regression: number of animals
Description: as §1, §2, §3, §4, §5
Efficacy data was graphically represented as the mean tumor volume±standard error of the mean (SEM). Tumor volumes of treated groups were presented as percentages of tumor volumes of the control groups (% T/C), using the formula: 100×((T−T0)/(C−C0)), where T represented mean tumor volume of a treated group on a specific day during the experiment, T0 represented mean tumor volume of the same […] group on the first day of treatment; C represented mean tumor volume of a control group on the specific day during the experiment, and C0 represented mean tumor volume of the same […] group on the first day of treatment.
Tumor volume (in cubic millimeters) was calculated using the ellipsoid formula: (D×(d2))/2 where ‘D’ represents the large diameter of the tumor, and ‘d’ represents the small diameter.
Statistical analysis of treated groups was compared with the vehicle group with Mann-Whitney Rank Sum Test, comparisons between groups were analyzed by one-way ANOVA, and post-hoc Bonferroni t-test (GraphPad Prism, version 5.03). Differences between groups were considered to be significant when the probability value (p) was ≦0.05.

[3] = Compound III 100 mg/kg qweekly po
[4] = Compound II 200 mg/kg qweekly po

What does the source list for `COc1cc(C(=O)O)ccc1NC(=O)[C@@H]1N[C@@H](CC(C)(C)C)[C@](C#N)(c2ccc(Cl)cc2F)[C@H]1c1cccc(Cl)c1F` [Compound III]?
# of animals ≧ 20% BWL (Compound III 80 mg/kg qdx5 po): 0; % Change in Body Weight at end of Study Day 28 (Compound III 80 mg/kg qdx5 po): 5.3%; Max % Weight Gain (Compound III 80 mg/kg qdx5 po): 7.4%; Max % Weight Loss (Compound III 80 mg/kg qdx5 po): 5.3%; Mortality (Compound III 80 mg/kg qdx5 po): 0; # of animals ≧ 20% BWL [3]: 0; % Change in Body Weight at end of Study Day 28 [3]: 6.6%; Max % Weight Gain [3]: 7.5%; Max % Weight Loss [3]: 4.7%; Mortality [3]: 0; % Increased Life Span ([1]; Compound III 80 mg/kg qdx5 po): 29%; % Increased Life Span [1, 3]: 29%; % ILS ([1]; Compound III 80 mg/kg): 29%; % ILS ([1]; Compound III 100 mg/kg): 29%; 50% Treatment Days ([1]; Compound III 80 mg/kg): 31 days; 50% Treatment Days ([1]; Compound III 100 mg/kg): 31 days; % Inhibition end of study Day: 28 ([2]; Compound III 80 mg/kg qdx5 po): 65%; % T/C end of study Day: 28 ([2]; Compound III 80 mg/kg qdx5 po): 35%; Mean Tumor Volume (mm^3) End Study DAY: 29 ([2]; Compound III 80 mg/kg qdx5 po): 705.24 mm^3; Mean Tumor Volume (mm^3) Start Study DAY: 14 ([2]; Compound III 80 mg/kg qdx5 po): 143.00 mm^3; Full Regression ([2]; Compound III 80 mg/kg qdx5 po): 0; Partial Regression ([2]; Compound III 80 mg/kg qdx5 po): 0; % Inhibition end of study Day: 28 [2, 3]: 50%; % T/C end of study Day: 28 [2, 3]: 50%; Mean Tumor Volume (mm^3) End Study DAY: 29 [2, 3]: 952.64 mm^3; Mean Tumor Volume (mm^3) Start Study DAY: 14 [2, 3]: 147.78 mm^3; Full Regression [2, 3]: 0; Partial Regression [2, 3]: 0

Which results are given for `CCOc1cc(C(C)(C)C)ccc1C1=N[C@@](C)(c2ccc(Cl)cc2)[C@@](C)(c2ccc(Cl)cc2)N1C(=O)N1CCN(CCCS(C)(=O)=O)CC1` [Compound II]?
Reason for mortality/morbidity (Compound II 100 mg/kg qd po): Technical; % Increased Life Span ([1]; Compound II 100 mg/kg qd po): 29%; % Increased Life Span [1, 4]: 0%; % ILS ([1]; Compound II 100 mg/kg): 29%; % ILS ([1]; Compound II 200 mg/kg): 0%; 50% Treatment Days ([1]; Compound II 100 mg/kg): 31 days; 50% Treatment Days ([1]; Compound II 200 mg/kg): 24 days; % Inhibition end of study Day: 28 ([2]; Compound II 100 mg/kg qd po): 64%; % T/C end of study Day: 28 ([2]; Compound II 100 mg/kg qd po): 36%; Mean Tumor Volume (mm^3) End Study DAY: 29 ([2]; Compound II 100 mg/kg qd po): 726.30 mm^3; Mean Tumor Volume (mm^3) Start Study DAY: 14 ([2]; Compound II 100 mg/kg qd po): 146.39 mm^3; Full Regression ([2]; Compound II 100 mg/kg qd po): 0; Partial Regression ([2]; Compound II 100 mg/kg qd po): 0; % Inhibition end of study Day: 28 [2, 4]: 18%; % T/C end of study Day: 28 [2, 4]: 82%; Mean Tumor Volume (mm^3) End Study DAY: 29 [2, 4]: 1466.93 mm^3; Mean Tumor Volume (mm^3) Start Study DAY: 14 [2, 4]: 141.33 mm^3; Full Regression [2, 4]: 0; Partial Regression [2, 4]: 0

For `CCCS(=O)(=O)Nc1ccc(F)c(C(=O)c2c[nH]c3ncc(-c4ccc(Cl)cc4)cc23)c1F` [vemurafenib, Propane-1-sulfonic acid {3-[5-(4-chlorophenyl)-1H-pyrrolo[2,3-b]pyridine-3-carbonyl-2,4-difluoro-phenyl]-amide}, reference compound], which “# of animals ≧ 20% BWL” value (vemurafenib 50 mg/kg bid po) is on record?
Its value is 0.

And the “% Change in Body Weight at end of Study Day 28” value (vemurafenib 50 mg/kg bid po)?
The value was 4.6%.

What about the “Max % Weight Gain” value (vemurafenib 50 mg/kg bid po) of the same compound?
Its value is 7.5%.

What about the “Max % Weight Loss” value (vemurafenib 50 mg/kg bid po) of the same compound?
The value was 2.8%.

And the Mortality (vemurafenib 50 mg/kg bid po)?
Its Mortality is 0.

And the “% Increased Life Span” value ([1]; vemurafenib 50 mg/kg bid po)?
Its value is 0%.

And the “% ILS” value ([1]; vemurafenib 50 mg/kg)?
Its value is 0%.

What about the “50% Treatment Days” value ([1]; vemurafenib 50 mg/kg) of the same compound?
The value was 24 days.

What about the “% Inhibition end of study Day: 28” value ([2]; vemurafenib 50 mg/kg bid po) of the same compound?
Its value is 7%.

And the “% T/C end of study Day: 28” value ([2]; vemurafenib 50 mg/kg bid po)?
The value was 93%.

What about the “Mean Tumor Volume (mm^3) End Study DAY: 29” value ([2]; vemurafenib 50 mg/kg bid po) of the same compound?
The value was 1643.76 mm^3.

And the “Mean Tumor Volume (mm^3) Start Study DAY: 14” value ([2]; vemurafenib 50 mg/kg bid po)?
The value was 142.50 mm^3.

What about the “Full Regression” value ([2]; vemurafenib 50 mg/kg bid po) of the same compound?
The value was 0.

And the “Partial Regression” value ([2]; vemurafenib 50 mg/kg bid po)?
Its value is 0.
